System: NCI-H1341 complex spheroids, percent test/control
Assay: Anticancer human tumor NCI-H1341 cell line growth inhibition [AhR];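 further: spheroids exposed to agents for seven days before readout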
Conditions: for IC50: curve of first compound; for viability, T/C: stronger effect = lower value
Summary of the method: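 Complex tumor spheroids co-cultured with HUVEC and human MSC stroma; AhR antagonists tested in combination with standard-of-care and investigational agents. Top concentration at or near clinical Cmax (else 10 microM), half-log dilutions; growth expressed as percent test/control.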

[1] = second compound 0.1 µM, first compound 0.0316 µM
[2] = second compound 0.1 µM, first compound 0.1 µM
[3] = second compound 0.1 µM, first compound 0.316 µM
[4] = second compound 0.1 µM, first compound 1 µM
[5] = second compound 0.1 µM, first compound 3.16 µM
[6] = second compound 0.1 µM, first compound 10 µM
[7] = second compound 0.316 µM, first compound 0.0316 µM
[8] = second compound 0.316 µM, first compound 0.1 µM
[9] = second compound 0.316 µM, first compound 0.316 µM
[10] = second compound 0.316 µM, first compound 1 µM
[11] = second compound 0.316 µM, first compound 3.16 µM
[12] = second compound 0.316 µM, first compound 10 µM
[13] = second compound 1 µM, first compound 0.0316 µM
[14] = second compound 1 µM, first compound 0.1 µM
[15] = second compound 1 µM, first compound 0.316 µM
[16] = second compound 1 µM, first compound 1 µM
[17] = second compound 1 µM, first compound 3.16 µM
[18] = second compound 1 µM, first compound 10 µM
[19] = second compound 3.16 µM, first compound 0.0316 µM
[20] = second compound 3.16 µM, first compound 0.1 µM
[21] = second compound 3.16 µM, first compound 0.316 µM
[22] = second compound 3.16 µM, first compound 1 µM
[23] = second compound 3.16 µM, first compound 3.16 µM
[24] = second compound 3.16 µM, first compound 10 µM
[25] = second compound 10 µM, first compound 0.0316 µM
[26] = second compound 10 µM, first compound 0.1 µM
[27] = second compound 10 µM, first compound 0.316 µM
[28] = second compound 10 µM, first compound 1 µM
[29] = second compound 10 µM, first compound 3.16 µM
[30] = second compound 10 µM, first compound 10 µM

With `CC(C)CC(NC(=O)C(Cc1ccccc1)NC(=O)c1cnccn1)B(O)O` (stereo not given) + Cc1cncc(-c2nc(NCCc3c[nH]c4ccccc34)c3ncn(C(C)C)c3n2)c1 the IC50 (second compound 0.1 µM) was 5.11 nM, the IC50 (second compound 0.316 µM) was 4.76 nM and the IC50 (second compound 1 µM) was 4 nM. For the same molecule, the IC50 (second compound 3.16 µM) was 3.73 nM, the IC50 (second compound 10 µM) was under 0.949 nM and the viability, T/C (second compound 0.1 µM, first compound 0.000949 µM) was 98.4%. It also gave a viability, T/C (second compound 0.1 µM, first compound 0.003 µM) of 89.7%, a viability, T/C (second compound 0.1 µM, first compound 0.00949 µM) of 3.87% and a viability, T/C (second compound 0.1 µM, first compound 0.03 µM) of 0.1%. For the same molecule, the viability, T/C (second compound 0.1 µM, first compound 0.0949 µM) was 0.05%, the viability, T/C (second compound 0.1 µM, first compound 0.3 µM) was 0.16% and the viability, T/C (second compound 0.316 µM, first compound 0.000949 µM) was 80.5%. For the same molecule, the viability, T/C (second compound 0.316 µM, first compound 0.003 µM) was 83.1%, the viability, T/C (second compound 0.316 µM, first compound 0.00949 µM) was 2.53% and the viability, T/C (second compound 0.316 µM, first compound 0.03 µM) was 0.14%. The viability, T/C (second compound 0.316 µM, first compound 0.0949 µM) was 0.06%, the viability, T/C (second compound 0.316 µM, first compound 0.3 µM) was 0.12% and the viability, T/C (second compound 1 µM, first compound 0.000949 µM) was 83.4%. It also gave a viability, T/C (second compound 1 µM, first compound 0.003 µM) of 65.8%, a viability, T/C (second compound 1 µM, first compound 0.00949 µM) of 2.45% and a viability, T/C (second compound 1 µM, first compound 0.03 µM) of 0.11%. The viability, T/C (second compound 1 µM, first compound 0.0949 µM) was 0.05%, the viability, T/C (second compound 1 µM, first compound 0.3 µM) was 0.5% and the viability, T/C (second compound 3.16 µM, first compound 0.000949 µM) was 56.4%. It also gave a viability, T/C (second compound 3.16 µM, first compound 0.003 µM) of 66.4%, a viability, T/C (second compound 3.16 µM, first compound 0.00949 µM) of 1.23% and a viability, T/C (second compound 3.16 µM, first compound 0.03 µM) of 0.06%. It also gave a viability, T/C (second compound 3.16 µM, first compound 0.0949 µM) of 0.08%, a viability, T/C (second compound 3.16 µM, first compound 0.3 µM) of 0.14% and a viability, T/C (second compound 10 µM, first compound 0.000949 µM) of 28%. The viability, T/C (second compound 10 µM, first compound 0.003 µM) was 58.4%, the viability, T/C (second compound 10 µM, first compound 0.00949 µM) was 0.22% and the viability, T/C (second compound 10 µM, first compound 0.03 µM) was 0.14%. For the same molecule, the viability, T/C (second compound 10 µM, first compound 0.0949 µM) was 0.15% and the viability, T/C (second compound 10 µM, first compound 0.3 µM) was 0.17%.
Molecule `COc1cc(Nc2ncc3c(n2)-c2ccc(Cl)cc2C(c2c(F)cccc2OC)=NC3)ccc1C(=O)O` + Cc1cncc(-c2nc(NCCc3c[nH]c4ccccc34)c3ncn(C(C)C)c3n2)c1 has an IC50 (second compound 0.1 µM) of under 31.6 nM, an IC50 (second compound 0.316 µM) of under 31.6 nM and an IC50 (second compound 1 µM) of under 31.6 nM. For the same molecule, the IC50 (second compound 3.16 µM) was under 31.6 nM, the IC50 (second compound 10 µM) was under 31.6 nM and the viability, T/C [1] was 38.2%. For the same molecule, the viability, T/C [2] was 42.3%, the viability, T/C [3] was 38.9% and the viability, T/C [4] was 31.2%. It also gave a viability, T/C [5] of 24.2%, a viability, T/C [6] of 21% and a viability, T/C [7] of 37.1%. The viability, T/C [8] was 37.1%, the viability, T/C [9] was 34.9% and the viability, T/C [10] was 23.9%. The viability, T/C [11] was 26.9%, the viability, T/C [12] was 22.3% and the viability, T/C [13] was 36.1%. The viability, T/C [14] was 39.9%, the viability, T/C [15] was 34.3% and the viability, T/C [16] was 30.1%. The viability, T/C [17] was 25.8%, the viability, T/C [18] was 20.5% and the viability, T/C [19] was 42.2%. The viability, T/C [20] was 37.7%, the viability, T/C [21] was 40.2% and the viability, T/C [22] was 37.5%. It also gave a viability, T/C [23] of 27.5%, a viability, T/C [24] of 24% and a viability, T/C [25] of 25.4%. For the same molecule, the viability, T/C [26] was 30.3%, the viability, T/C [27] was 29.8% and the viability, T/C [28] was 24.2%. For the same molecule, the viability, T/C [29] was 21.2% and the viability, T/C [30] was 19.4%.
Work on `NS(=O)(=O)OCC1CC(n2ccc3c(NC4CCc5ccccc54)ncnc32)CC1O` (stereo not given) + Cc1cncc(-c2nc(NCCc3c[nH]c4ccccc34)c3ncn(C(C)C)c3n2)c1 yielded an IC50 (second compound 0.1 µM) of 108 nM, an IC50 (second compound 0.316 µM) of 83.3 nM and an IC50 (second compound 1 µM) of under 31.6 nM. The IC50 (second compound 3.16 µM) was under 31.6 nM, the IC50 (second compound 10 µM) was under 31.6 nM and the viability, T/C [1] was 50.1%. The viability, T/C [2] was 52.7%, the viability, T/C [3] was 33.8% and the viability, T/C [4] was 15.5%. It also gave a viability, T/C [5] of 14%, a viability, T/C [6] of 12.5% and a viability, T/C [7] of 54.4%. The viability, T/C [8] was 48.5%, the viability, T/C [9] was 34.8% and the viability, T/C [10] was 17.6%. For the same molecule, the viability, T/C [11] was 16.8%, the viability, T/C [12] was 12.4% and the viability, T/C [13] was 42%. It also gave a viability, T/C [14] of 43.6%, a viability, T/C [15] of 35.5% and a viability, T/C [16] of 18.4%. It also gave a viability, T/C [17] of 15.7%, a viability, T/C [18] of 15.8% and a viability, T/C [19] of 49.4%. The viability, T/C [20] was 41.6%, the viability, T/C [21] was 41.4% and the viability, T/C [22] was 27.6%. It also gave a viability, T/C [23] of 19.5%, a viability, T/C [24] of 17% and a viability, T/C [25] of 26.4%. For the same molecule, the viability, T/C [26] was 31.7%, the viability, T/C [27] was 29.9% and the viability, T/C [28] was 25.2%. For the same molecule, the viability, T/C [29] was 21.4% and the viability, T/C [30] was 20.1%.
`O=C(C=Cc1cccc(S(=O)(=O)Nc2ccccc2)c1)NO` + Cc1cncc(-c2nc(NCCc3c[nH]c4ccccc34)c3ncn(C(C)C)c3n2)c1 showed an IC50 (second compound 0.1 µM) of 278 nM, an IC50 (second compound 0.316 µM) of 366 nM and an IC50 (second compound 1 µM) of 179 nM. It also gave an IC50 (second compound 3.16 µM) of 150 nM, an IC50 (second compound 10 µM) of under 31.6 nM and a viability, T/C [1] of 71.7%. For the same molecule, the viability, T/C [2] was 80.8%, the viability, T/C [3] was 43.8% and the viability, T/C [4] was 16%. It also gave a viability, T/C [5] of 5.29%, a viability, T/C [6] of 0.53% and a viability, T/C [7] of 76.2%. For the same molecule, the viability, T/C [8] was 74.7%, the viability, T/C [9] was 55.1% and the viability, T/C [10] was 15.3%. The viability, T/C [11] was 5.78%, the viability, T/C [12] was 0.65% and the viability, T/C [13] was 80.3%. The viability, T/C [14] was 55.7%, the viability, T/C [15] was 44.9% and the viability, T/C [16] was 22.9%. For the same molecule, the viability, T/C [17] was 5.39%, the viability, T/C [18] was 0.5% and the viability, T/C [19] was 71.2%. The viability, T/C [20] was 55.6%, the viability, T/C [21] was 38.1% and the viability, T/C [22] was 13.1%. For the same molecule, the viability, T/C [23] was 4.08%, the viability, T/C [24] was 0.56% and the viability, T/C [25] was 37%. For the same molecule, the viability, T/C [26] was 33.9%, the viability, T/C [27] was 20.2% and the viability, T/C [28] was 9.91%. It also gave a viability, T/C [29] of 2.99% and a viability, T/C [30] of 0.32%.
